From patent US20080242661A1, “Novel compounds useful for the treatment of degenerative & inflammatory diseases” (priority 2006, published 2008) come the findings set out here.

A value given as a limit tells only on which side of the number the result lay.

For the assay, the target named is purified PDE1A enzyme (Homo sapiens, UniProt P54750). Kind of assay: In vitro PDE1A assay, dose response (Biomol Cyclic Nucleotide Phosphodiesterase Assay Kit, colorimetric). In kind it is biochemical. As to conditions: 100 μM cAMP, 45 min at 37° C., 8 points from 20 μM, duplicate. The text has this: For the dose response and further screening, we used the Cyclic Nucleotide Phosphodiesterase Assay Kit from Biomol, a colorimetric, non-radioactive assay. The basis for the assay is the cleavage of cAMP by PDE1A. The 5′AMP is further cleaved into the nucleoside and phosphate by the enzyme 5′-nucleotidase (catnr KI-307). The phosphate released due to enzymatic cleavage is quantified using BIOMOL GREEN™ reagent (catnr AK-111) in a modified Malachite Green assay 1,2. A PDE1A inhibitor will result in a decrease of the signal.
For the enzymatic reaction a mix of 25 μL with purified PDE1A enzyme, 100 μM cAMP, 5′Nucleotidase and the compound is made in a clear 384-plate. The reaction buffer is Tris 20 mM pH 7.4, 4 μg/ml calmodulin, 3 mM MgCl2, 1.5 mM CaCl2, 0.2 mg/mL BSA and 0.001% Brij-35. After an incubation of 45 minutes at 37° C., the reaction is stopped by the addition of 50 μL BIOMOL GREEN™ reagent. After 30 minutes incubation at room temperature, the readout is performed on the Envision (absorption at 615 nm).
All compounds are tested in duplicate starting from 20 μM followed by a ⅓ serial dilution, 8 points (20 μM-6.67 μM-2.22 μM-740 nM-247 nM-82 nM-27 nM-9 nM) in a final concentration of 1% DMSO. As the positive dose response control compound Vardenafil is used. For the calculation of z′ and PIN values 10 μM Vardenafil is used as positive control (100% inhibition) and 1% DMSO as negative control (0% inhibition).
The following compounds have been or can be prepared according to the synthetic methods described above. For the purpose of Table 2 below, activity of each compound, which can be determined using the PDE1A assay method described in above, is expressed as follows: […]
For the compound `CCCc1nn(C)c2c(=O)[nH]c(N3CCc4cc(F)ccc4C3)nc12` [Example 34, 5-(6-fluoro-3,4-dihydroisoquinolin-2(1H)-yl)-1-methyl-3-propyl-1H-pyrazolo[4,3-d]pyrimidin-7(6H)-one], the IC50 fell in the range of 101 to 500 nM.
The figure for `CCCc1nn(C)c2c(=O)[nH]c(NCc3cccc(-n4cncn4)c3)nc12` [Example 73] is 101 to 500 nM; for `CCC(C)CN(Cc1cccc(-n2cncn2)c1)c1nc2c(C(C)(C)C)nn(C)c2c(=O)[nH]1` (stereo not drawn) [Example 118] it is < 100 nM; for `CC(C)CN(Cc1cccc(-n2cncn2)c1)c1nc2c(C(C)(C)C)nn(C)c2c(=O)[nH]1` [Example 95] it is < 100 nM.
The figure for `CCCN(CCC)c1nc2c(C3CCCC3)nn(C)c2c(=O)[nH]1` [Example 78, 3-cyclopentyl-5-(dipropylamino)-1-methyl-1H-pyrazolo[4,3-d]pyrimidin-7(6H)-one] is < 100 nM; for `CCCc1nn(C)c2c(=O)[nH]c(N(Cc3cccc(-n4cccn4)c3)CC(C)(C)C)nc12` [Example 119] it is < 100 nM.
The same measure for `CCCc1nn(C)c2c(=O)[nH]c(NCc3ccnc(N4CCOCC4)c3)nc12` [Example 54, 1-methyl-5-((2-morpholinopyridin-4-yl)methylamino)-3-propyl-1H-pyrazolo[4,3-d]pyrimidin-7(6H)-one]: 101 to 500 nM; for `CCCc1nn(C)c2c(=O)[nH]c(N(Cc3cccc(-n4cccn4)c3)CC(C)C)nc12` [Example 94]: < 100 nM.
Regarding `CCCc1nn(C)c2c(=O)[nH]c(N(Cc3cccc(-n4cncn4)c3)CC(C)CC)nc12` (stereo not drawn) [Example 116], the half-inhibitory concentration (IC50) is < 100 nM.
The same measure for `CC1CCCCN1c1nc2c(C3CCCC3)nn(C)c2c(=O)[nH]1` (stereo not drawn) [Example 84, 3-cyclopentyl-1-methyl-5-(2-methylpiperidin-1-yl)-1H-pyrazolo[4,3-d]pyrimidin-7(6H)-one]: > 500 nM.
The same measure for `CCCc1nn(C)c2c(=O)[nH]c(N(CCC(C)(C)C)Cc3cccc(N4CCOCC4)c3)nc12` [Example 108, 5-((3,3-dimethylbutyl)(3-morpholinobenzyl)amino)-1-methyl-3-propyl-1H-pyrazolo[4,3-d]pyrimidin-7(6H)-one]: < 100 nM; for `CCCc1nn(C)c2c(=O)[nH]c(N(C)CC(C)CCC)nc12` (stereo not drawn) [Example 123, 1-methyl-5-(methyl(2-methylpentyl)amino)-3-propyl-1H-pyrazolo[4,3-d]pyrimidin-7(6H)-one]: 101 to 500 nM; for `CCCc1nn(C)c2c(=O)[nH]c(N(C)Cc3cccc(N4CCOCC4)n3)nc12` [Example 42, 1-methyl-5-(methyl((6-morpholinopyridin-2-yl)methyl)amino)-3-propyl-1H-pyrazolo[4,3-d]pyrimidin-7(6H)-one]: 101 to 500 nM.
The figure for `CCCc1nn(C)c2c(=O)[nH]c(N(C)Cc3ccc(F)cc3)nc12` [Example 21, 5-((4-fluorobenzyl)(methyl)amino)-1-methyl-3-propyl-1H-pyrazolo[4,3-d]pyrimidin-7(6H)-one] is < 100 nM.
For the compound `CCC(CC)CN(C)c1nc2c(C(C)(C)C)nn(C)c2c(=O)[nH]1` [Example 105, 3-tert-butyl-5-((2-ethylbutyl)(methyl)amino)-1-methyl-1H-pyrazolo[4,3-d]pyrimidin-7(6H)-one], the IC50 was < 100 nM.
The same measure for `CCCc1nn(C)c2c(=O)[nH]c(N3CCc4ccccc4C3)nc12` [Example 8, 5-(3,4-dihydroisoquinolin-2(1H)-yl)-1-methyl-3-propyl-1H-pyrazolo[4,3-d]pyrimidin-7(6H)-one]: 101 to 500 nM; for `CCCN(CCC)c1nc2c(C(C)(C)C)nn(C)c2c(=O)[nH]1` [Example 89, 3-tert-butyl-5-(dipropylamino)-1-methyl-1H-pyrazolo[4,3-d]pyrimidin-7(6H)-one]: < 100 nM; for `Cc1nc(-c2cccc(CN(C)c3nc4c(C(C)(C)C)nn(C)c4c(=O)[nH]3)c2)cs1` [Example 90, 3-tert-butyl-1-methyl-5-(methyl(3-(2-methylthiazol-4-yl)benzyl)amino)-1H-pyrazolo[4,3-d]pyrimidin-7(6H)-one]: < 100 nM.
The same measure for `CCCc1nn(C)c2c(=O)[nH]c(NCCc3ccc(OCC)c(OCC)c3)nc12` [Example 82, 5-(3,4-diethoxyphenethylamino)-1-methyl-3-propyl-1H-pyrazolo[4,3-d]pyrimidin-7(6H)-one]: > 500 nM.
With `CCCc1nn(C)c2c(=O)[nH]c(N(C)Cc3cccc(Cl)c3)nc12` [Example 15, 5-((3-chlorobenzyl)(methyl)amino)-1-methyl-3-propyl-1H-pyrazolo[4,3-d]pyrimidin-7(6H)-one], the concentration for half-maximal inhibition (IC50) fell in the range of 101 to 500 nM.
The figure for `CCCc1nn(C)c2c(=O)[nH]c(N(C)Cc3cccc(-c4cncnc4)c3)nc12` [Example 12, 1-methyl-5-(methyl(3-(pyrimidin-5-yl)benzyl)amino)-3-propyl-1H-pyrazolo[4,3-d]pyrimidin-7(6H)-one] is 101 to 500 nM; for `CCCc1nn(C)c2c(=O)[nH]c(NCc3c(-c4ccccc4)noc3C)nc12` [Example 51, 1-methyl-5-((5-methyl-3-phenylisoxazol-4-yl)methylamino)-3-propyl-1H-pyrazolo[4,3-d]pyrimidin-7(6H)-one] it is 101 to 500 nM.
The compound `CCCc1nn(C)c2c(=O)[nH]c(N(C)Cc3ccc(OCCN4CCOCC4)cc3)nc12` [Example 49, 1-methyl-5-(methyl(4-(2-morpholinoethoxy)benzyl)amino)-3-propyl-1H-pyrazolo[4,3-d]pyrimidin-7(6H)-one] yielded a concentration for half-maximal inhibition (IC50) of 101 to 500 nM.
The figure for `CCn1nc(C(C)(C)C)c2nc(N(Cc3cccc(N4CCOCC4)c3)CC(C)C)[nH]c(=O)c21` [Example 124, 3-tert-butyl-1-ethyl-5-(isobutyl(3-morpholinobenzyl)amino)-1H-pyrazolo[4,3-d]pyrimidin-7(6H)-one] is > 500 nM.
The figure for `CCCc1nn(C)c2c(=O)[nH]c(NCc3ccc4ccn(C)c4c3)nc12` [Example 69, 1-methyl-5-((1-methyl-1H-indol-6-yl)methylamino)-3-propyl-1H-pyrazolo[4,3-d]pyrimidin-7(6H)-one] is 101 to 500 nM.
The same measure for `CCCc1nn(C)c2c(=O)[nH]c(N(C)Cc3cccc(-c4csc(C)n4)c3)nc12` [Example 65, 1-methyl-5-(methyl(3-(2-methylthiazol-4-yl)benzyl)amino)-3-propyl-1H-pyrazolo[4,3-d]pyrimidin-7(6H)-one]: 101 to 500 nM.
As to `CCCc1nn(C)c2c(=O)[nH]c(NCCc3ccc(F)cc3)nc12` [Example 87, 5-(4-fluorophenethylamino)-1-methyl-3-propyl-1H-pyrazolo[4,3-d]pyrimidin-7(6H)-one], the 50% inhibitory concentration (IC50) was > 500 nM.
`CCCN(CCC)c1nc2c(C3CC3)nn(C)c2c(=O)[nH]1` [Example 125, 3-cyclopropyl-5-(dipropylamino)-1-methyl-1H-pyrazolo[4,3-d]pyrimidin-7(6H)-one] displayed a 50% inhibitory concentration (IC50) of 101 to 500 nM.
Take `CN(CCC(C)(C)C)c1nc2c(C(C)(C)C)nn(C)c2c(=O)[nH]1` [Example 111, 3-tert-butyl-5-((3,3-dimethylbutyl)(methyl)amino)-1-methyl-1H-pyrazolo[4,3-d]pyrimidin-7(6H)-one]: the IC50 is < 100 nM.
The figure for `CCCc1nn(C)c2c(=O)[nH]c(N(C)Cc3sc(-c4ccccc4)nc3C)nc12` [Example 47, 1-methyl-5-(methyl((4-methyl-2-phenylthiazol-5-yl)methyl)amino)-3-propyl-1H-pyrazolo[4,3-d]pyrimidin-7(6H)-one] is < 100 nM.

In general, IC50 refers to the concentration that inhibits the measured activity by half. A low value points to inhibition by little substance.
